Data published in ChEMBL document CHEMBL6092187, “Enantiomerically Pure Indazole Bioisosteres of Ifenprodil and Ro 25-6981 as Negative Allosteric Modulators of NMDA Receptors with the GluN2B Subunit” (J Med Chem, 2024).
pKi: −log10 of the molar value.

How the values were obtained:
[1] = molecular target: T1, Sigma intracellular receptor 2 (Rattus norvegicus, UniProt Q5U3Y7); assay: Displacement of [3H](+)-pentazocine from sigma2 receptor in rat liver membrane assessed as inhibition constant by competitive binding assay; format: cell membranes
T1 sequence (Q5U3Y7 whole entry): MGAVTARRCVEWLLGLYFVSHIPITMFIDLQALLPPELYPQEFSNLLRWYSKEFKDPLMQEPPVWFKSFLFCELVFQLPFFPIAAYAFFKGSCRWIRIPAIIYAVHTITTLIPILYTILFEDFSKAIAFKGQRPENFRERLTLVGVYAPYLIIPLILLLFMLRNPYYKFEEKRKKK

[2] = molecular target: Sigma non-opioid intracellular receptor 1 (Cavia porcellus, UniProt Q60492); assay: Displacement of [3H](+)-pentazocine from sigma1 receptor in guniea pig brain membrane assessed as inhibition constant by competitive binding assay; format: cell membranes
Sigma non-opioid intracellular receptor 1, sequence (Q60492 whole entry): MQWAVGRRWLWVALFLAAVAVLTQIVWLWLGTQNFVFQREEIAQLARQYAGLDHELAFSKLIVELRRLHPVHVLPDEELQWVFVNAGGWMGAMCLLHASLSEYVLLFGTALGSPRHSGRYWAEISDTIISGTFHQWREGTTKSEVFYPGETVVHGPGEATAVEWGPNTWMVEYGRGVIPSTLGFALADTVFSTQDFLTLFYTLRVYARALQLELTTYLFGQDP

Albumin = Albumin (Homo sapiens, UniProt P02768); assay: Binding affinity to human serum albumin measured after 60 mins by high performance affinity chromatography based LC-MS analysis; conditions: 1 h
Albumin, sequence (P02768 whole entry): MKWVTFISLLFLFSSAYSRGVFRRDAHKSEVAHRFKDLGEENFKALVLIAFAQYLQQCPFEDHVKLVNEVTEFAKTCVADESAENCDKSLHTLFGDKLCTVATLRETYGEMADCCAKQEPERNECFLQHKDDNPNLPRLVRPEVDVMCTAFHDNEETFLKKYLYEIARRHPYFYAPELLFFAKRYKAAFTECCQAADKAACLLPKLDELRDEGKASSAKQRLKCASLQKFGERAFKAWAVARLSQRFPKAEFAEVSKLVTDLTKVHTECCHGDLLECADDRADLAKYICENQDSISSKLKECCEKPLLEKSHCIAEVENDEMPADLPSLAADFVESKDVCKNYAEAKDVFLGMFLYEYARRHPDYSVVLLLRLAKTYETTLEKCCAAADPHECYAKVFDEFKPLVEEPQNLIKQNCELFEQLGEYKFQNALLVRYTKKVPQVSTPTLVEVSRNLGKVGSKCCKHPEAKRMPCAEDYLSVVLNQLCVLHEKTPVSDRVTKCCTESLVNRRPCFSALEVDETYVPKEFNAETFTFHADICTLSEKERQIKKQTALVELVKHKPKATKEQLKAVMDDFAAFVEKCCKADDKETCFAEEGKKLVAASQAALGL

physchem = conditions: n-octanol/3-morpholinopropanesulfonic acid (MOPS) buffer, pH 7.4
in vitro = conditions: mouse, liver microsomes
Description: Metabolic stability in mouse liver microsomes assessed as parent compound remaining measured after 90 mins in presence of NADPH by HPLC analysis

[3] = mouse, microsomes, 1.5 h
Description: Drug metabolism in mouse liver microsomes assessed as glucuronic acid conjugates formation measured after 90 mins in presence of UDP-GA by LC-MS analysis

[4] = Metabolic stability in human liver microsomes assessed as half-life at 10 uM measured after 120 mins by LC-MS/MS analysis; format: ADME, Microsome
[5] = molecular target: Glutamate receptor ionotropic, NMDA 2B (Homo sapiens, UniProt Q13224); assay: Displacement of [3H]ifenprodil from human GluN2B receptor extracted from mouse LTK- cell membrane assessed as inhibition constant by competitive binding assay; format: cell membranes
Glutamate receptor ionotropic, NMDA 2B, sequence (Q13224 whole entry): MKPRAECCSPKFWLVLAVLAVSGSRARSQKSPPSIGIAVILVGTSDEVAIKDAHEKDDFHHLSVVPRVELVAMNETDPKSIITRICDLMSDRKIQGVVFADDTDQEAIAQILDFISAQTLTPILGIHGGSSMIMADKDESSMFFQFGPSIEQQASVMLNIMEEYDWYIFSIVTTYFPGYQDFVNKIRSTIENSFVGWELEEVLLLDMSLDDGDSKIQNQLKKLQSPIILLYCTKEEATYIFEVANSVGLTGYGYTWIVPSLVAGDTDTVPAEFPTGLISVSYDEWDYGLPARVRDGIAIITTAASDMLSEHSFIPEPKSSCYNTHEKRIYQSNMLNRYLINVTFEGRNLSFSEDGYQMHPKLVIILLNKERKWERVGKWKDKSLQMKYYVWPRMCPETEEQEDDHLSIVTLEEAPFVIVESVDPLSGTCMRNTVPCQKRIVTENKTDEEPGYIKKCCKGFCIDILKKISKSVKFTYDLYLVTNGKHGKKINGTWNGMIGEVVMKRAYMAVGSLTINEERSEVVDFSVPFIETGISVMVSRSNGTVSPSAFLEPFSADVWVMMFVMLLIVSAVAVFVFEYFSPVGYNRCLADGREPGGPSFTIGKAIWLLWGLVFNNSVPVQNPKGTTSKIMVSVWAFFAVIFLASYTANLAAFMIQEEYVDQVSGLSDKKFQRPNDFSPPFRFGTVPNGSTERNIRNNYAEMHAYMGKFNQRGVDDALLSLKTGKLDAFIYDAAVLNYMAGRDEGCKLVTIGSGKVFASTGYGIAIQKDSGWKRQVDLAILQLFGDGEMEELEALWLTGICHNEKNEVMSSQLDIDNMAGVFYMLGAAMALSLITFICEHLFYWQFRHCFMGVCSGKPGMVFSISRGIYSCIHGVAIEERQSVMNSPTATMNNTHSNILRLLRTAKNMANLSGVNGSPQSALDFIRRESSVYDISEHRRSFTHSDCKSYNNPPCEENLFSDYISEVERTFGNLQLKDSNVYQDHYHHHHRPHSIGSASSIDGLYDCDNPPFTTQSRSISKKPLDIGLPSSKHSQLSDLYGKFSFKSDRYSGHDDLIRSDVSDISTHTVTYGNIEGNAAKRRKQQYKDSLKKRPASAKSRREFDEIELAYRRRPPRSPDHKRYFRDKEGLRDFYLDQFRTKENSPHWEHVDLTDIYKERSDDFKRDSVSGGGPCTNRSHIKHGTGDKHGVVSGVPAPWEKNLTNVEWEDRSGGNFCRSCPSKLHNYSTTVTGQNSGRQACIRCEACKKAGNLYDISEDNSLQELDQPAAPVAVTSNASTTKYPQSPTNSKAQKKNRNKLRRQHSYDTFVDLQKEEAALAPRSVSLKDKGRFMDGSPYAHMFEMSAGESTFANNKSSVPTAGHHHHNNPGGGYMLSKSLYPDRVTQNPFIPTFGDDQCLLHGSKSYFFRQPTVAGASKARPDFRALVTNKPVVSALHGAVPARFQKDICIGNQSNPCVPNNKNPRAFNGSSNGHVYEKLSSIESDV

pKi [1] | pKi [2] | Activity (Albumin) | logD (physchem) | remaining at 1.5 h (in vitro) | Drug metabolism [3] | half-life at 10 µM [4] | pKi [5] | SMILES
7.72 | 7.47 | – | – | – | – | – | – | C[C@H]([C@H](O)c1ccc2[nH]ncc2c1)N1CCC(Cc2ccccc2)CC1 (stereo in doubt; 11cd)
6.58 | 6.50 | 92% | – | – | – | – | – | C[C@H]([C@@H](O)c1ccc2[nH]ncc2c1)N1CCC(Cc2ccccc2)CC1
6.95 | 6.17 | 90% | – | – | – | – | – | C[C@H]([C@H](O)c1ccc2[nH]ncc2c1)N1CCC(Cc2ccccc2)CC1 (stereo in doubt; 11c)
7.48 | 7.02 | 92% | – | – | – | – | – | C[C@@H]([C@H](O)c1ccc2[nH]ncc2c1)N1CCC(Cc2ccccc2)CC1 (stereo in doubt; 11a)
6.25 | 6.28 | 91% | – | – | – | – | – | C[C@@H]([C@@H](O)c1ccc2[nH]ncc2c1)N1CCC(Cc2ccccc2)CC1

The remaining lines, values behind:

SMILES | pKi [1] | pKi [2] | Activity (Albumin) | logD (physchem) | remaining at 1.5 h (in vitro) | Drug metabolism [3] | half-life at 10 µM [4] | pKi [5]
C[C@@H]([C@H](O)c1ccc2[nH]ncc2c1)N1CCC(Cc2ccccc2)CC1 (stereo in doubt; 11ab) | 6.61 | 7.42 | – | – | – | – | – | –
C[C@@H](CN1CCC(Cc2ccccc2)CC1)[C@H](O)c1ccc2[nH]ncc2c1 (stereo in doubt; 10c) | 6.57 | 7.34 | 93% | – | – | – | – | –
C[C@H](CN1CCC(Cc2ccccc2)CC1)[C@@H](O)c1ccc2[nH]ncc2c1 | 7.38 | 7.37 | 93% | – | – | – | – | –
C[C@H](CN1CCC(Cc2ccccc2)CC1)[C@H](O)c1ccc2[nH]ncc2c1 (stereo in doubt; 10a) | 6.95 | 7.62 | 89% | – | – | – | – | –
C[C@@H](CN1CCC(Cc2ccccc2)CC1)[C@H](O)c1ccc2[nH]ncc2c1 (stereo in doubt; 10cd) | 7.24 | 7.36 | – | – | – | – | – | –
C[C@@H](CN1CCC(Cc2ccccc2)CC1)[C@@H](O)c1ccc2[nH]ncc2c1 | 6.68 | 7.68 | 89% | – | – | – | – | –
C[C@H](CN1CCC(Cc2ccccc2)CC1)[C@H](O)c1ccc2[nH]ncc2c1 (stereo in doubt; 10ab) | 6.41 | 7.25 | – | – | – | – | – | –
CC(C(O)c1ccc(O)cc1)N1CCC(Cc2ccccc2)CC1 (configuration not stated) [IFENPRODIL] | – | – | 84% | 1.43 | 91.4% | metabolite_detected | – | –
C[C@@H](CN1CCC(Cc2ccccc2)CC1)[C@@H](O)c1ccc(O)cc1 | – | – | 82% | 1.9 | 5% | metabolite_detected | 23.7 min | 6.87
